Data reported in US20240173325A1, “METHODS FOR TREATING SPINAL MUSCULAR ATROPHY” (Genentech, Inc., priority 2022, published 2024).

Test system: neonatal subject
Assay: Clinical assessments of the neonatal subject (physical/neurologic exam, CHOP INTEND, HINE-2, Bayley-4, OrSAT, ultrasound)
Format: in vivo, human
Conditions: for CHOP INTEND: highest possible score 64; for Oral-motor assessment (OrSAT): maximum score 7
Experimental: Following birth, the neonatal subject, approximately one week and again at approximately six weeks of age, was assessed using the Hammersmith Infant Neurological Exam (HINE), Bayley Scales of Infant and Toddler Development, 4th edition (“Bayley™-4), the Children's Hospital of” Philadelphia Infant Test of Neuromuscular Disorders (CHOP INTEND), the Oral and Swallowing Abilities Tool (OrSAT), respiratory inductance plethysmography (RIP), a complete physical examination, anthropometric measurements (including vital signs, length, weight, head circumference and chest circumference), nerve conduction testing (specifically compound muscle action potential (CMAP) and motor unit number estimation (MUNE)), an ultrasound of the brain and muscles, blood and urine collection for CBC, CMP, U/A, and risdiplam PK/PD. The CBC, CMP, and U/A could be repeated at six weeks if the neonatal subject had not initiated any SMN-directed therapies, if there was a clinical indication upon physical examination, or if the one-week labs had clinically significant abnormal results.
The maximum score for the HINE-2 is 26 points, with a higher score reflecting a higher function, respectively.
Bayley™-4 is a comprehensive assessment tool for determining developmental delays in high-risk neonatal subjects. See Bayley & Aylward (2019) Bayley Scales of Infant and Toddler Development (4th ed.) technical manual. Bloomington, MN: NCS Pearson. Bayley™-4 scores from an assessment of early childhood development. Specifically, Bayley™-4 tests developmental skills such as cognitive, language, and motor skills of the neonatal subject. The scores represent how well the neonatal subject performed in these areas as compared to a group of neonatal subjects in the same age range. The Bayley™-4 mean standard score is 100 and the standard deviation is 15.
In Table 6, “CHOP INTEND” refers to a test that provides information about how strong the neonatal subject's muscles are and how well the neonatal subject can control his/her muscles. During the CHOP INTEND examination, a health care provider measures 16 types of muscle movements, which include head control (keeping the head upright), elbow flexion and knee extension (bending the joints), arm and leg mobility, and handgrip. […] All of the CHOP INTEND scores add up to one total score, with the highest possible score for the CHOP INTEND test being 64. With a score of 50 at 6 weeks and a score of 55 at 18 weeks, the neonatal subject was considered to be normal.
“OrSAT” or “Oral and Swallowing Abilities Tool” is a tool specifically designed to record structured information on different aspects related to oral, swallowing and feeding abilities in patients with type 1 SMA. See Berti (2022) Arch. Dis. Child. archdischild-2022-323899. Specifically, OrSAT includes several questions, where the responses are graded using a scoring system: each item is scored as 0 or 1 depending if the patient is able or unable to perform a given activity. Since some items are age-dependent, the number of items and the maximal score increases with an increasing age. If the neonatal subject younger than 6 months of age who cannot be assessed on swallowing semisolids or solids, the maximum score is 7, whereas if the neonatal subject is between 6 and 9 months of age, who can be assessed on this criteria, the maximum score is 10. If the neonatal subject is 10 months of age or older and can be assessed for all food consistencies, including solids, the maximum total score is 12. See Berti (2021) J. Neuromuscul. Dis. 8(4):589-601.
Muscle ultrasound was performed using a 11-mHz-linear array transducer (60 mm width) in B-mode (GE Vivid E95; GE, Chicago, IL, USA) to evaluate for muscle fasciculation in the right and left biceps, the abductor digiti minimi muscle, the quadriceps, the transverse abdominal muscle, the gastrocnemius-soleus, the lumbar paraspinals and the tongue. Thickness of the quadriceps muscle was measured. […]

Cc1cn2nc(-c3cc(=O)n4cc(N5CCNC6(CC6)C5)ccc4n3)cc(C)c2n1 [risdiplam, 7-(4,7-diazaspiro[2.5]octan-7-yl)-2-(2,8-dimethylimidazo[1,2-b]pyridazin-6-yl)-4H-pyrido[1,2-a]pyrimidin-4-one]
Ultrasound studies Neurosonogram Muscle (1 week): normal | General Physical Exam (1 week to 18 weeks): Heart murmur (VSD) | Neurologic Exam (1 week to 18 weeks): Normal, age-appropriate tone, posture, | CHOP INTEND (1 week): 46 | Oral-motor assessment (OrSAT) (1 week): 7 | Mental status (2 weeks to 2 months): Somnolent and fussy | Ultrasound studies Neurosonogram Muscle (6 weeks): normal | CHOP INTEND (6 weeks): 50 | Oral-motor assessment (OrSAT) (6 weeks): 7 | Bayley-4 Adaptive Behavior (18 weeks): Behavior: 89 | Bayley-4 Cognitive (18 weeks): Cognitive: 95 | Bayley-4 Communication (18 weeks): Communication: 103 | Bayley-4 Social (18 weeks): Social: 95 | Ultrasound studies Neurosonogram Muscle (18 weeks): normal | Oral-motor assessment (OrSAT) (18 weeks): 7 | HINE-2 (18 weeks, maximum score 26): 8 | Bayley-4 Motor (18 weeks, mean standard score 100, SD 15): Motor: 101 | APGAR score (1 minute): APGAR scores: 7 | APGAR score (5 minutes): minute), 8 (5 minutes) | Growth (weight gain) (after 2 months): Normal after | Mental status (after 2 months): Normal after | General Physical Exam (birth to 1 week): Respiratory distress | Mental status (birth to 1 week): Normal | Neurologic Exam (birth to 1 week): Normal, age- appropriate | Ultrasound studies Neurosonogram Muscle (birth to 1 week (DOL2)): normal DOL2
